The series relates to rodent carcinogenicity bioassays, tumor incidence. Nature of the series: CCRIS carcinogenicity studies. Summed up:
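Archive of carcinogenicity, mutagenicity, tumor promotion and tumor inhibition results drawn from journals, NCI reports and other sources, expert-reviewed; covers 1985-2011 and is no longer updated.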

Calls of active or inactive are those of the source. The rule behind the calls is not given here.

On to `CCNC(=O)N(C)N=O`, for which the carcinogen call is, setting by setting: (Species: RAT, Strain/Sex: F344/FEMALE, Route: GAVAGE, Dose: 0, 20, 40 UMOL/WK IN CORN OIL/ETHYL ACETATE (2: 1) FOR 30 WK (LOW DOSE) OR 15 WK (HIGH DOSE) FOR TOTAL DOSES OF 0, 0.6;, Dose: 0, 20, 40 UMOL/WK IN CORN OIL/ETHYL ACETATE (2: 1) FOR 30 WK (LOW DOSE) OR 15 WK (HIGH DOSE) FOR TOTAL DOSES OF 0, 0.6;, Tumor Site: Type of Lesion: NERVOUS SYSTEM: TUMOR, THYMUS: TUMOR) “active; positive”; (Species: RAT, Strain/Sex: F344/FEMALE, Route: ORAL, Dose: 0, 20, 40 UMOL/WK IN DRINKING WATER FOR 30 WK FOR TOTAL DOSES OF 0, 0.6, 1.2 MMOL (STUDY DURATION: LIFETIME), Dose: 0, 20, 40 UMOL/WK IN DRINKING WATER FOR 30 WK FOR TOTAL DOSES OF 0, 0.6, 1.2 MMOL (STUDY DURATION: LIFETIME), Tumor Site: Type of Lesion: NERVOUS SYSTEM: TUMOR, KIDNEY: TUMOR) “active; positive”; (Species: RAT, Strain/Sex: F344/MALE, Route: GAVAGE, Dose: 0, 20, 40 UMOL/WK IN CORN OIL/ETHYL ACETATE (2: 1) FOR 30 WK FOR TOTAL DOSES OF 0, 0.6, 1.2 MMOL (STUDY DURATION: LIFETI, Dose: 0, 20, 40 UMOL/WK IN CORN OIL/ETHYL ACETATE (2: 1) FOR 30 WK FOR TOTAL DOSES OF 0, 0.6, 1.2 MMOL (STUDY DURATION: LIFETI, Tumor Site: Type of Lesion: NERVOUS SYSTEM: TUMOR, TESTIS: MESOTHELIOMA) “active; positive”; (Species: RAT, Strain/Sex: F344/MALE, Route: ORAL, Dose: 0, 20, 40 UMOL/WK IN DRINKING WATER FOR 30 WK FOR TOTAL DOSES OF 0, 0.6, 1.2 MMOL (STUDY DURATION: LIFETIME), Dose: 0, 20, 40 UMOL/WK IN DRINKING WATER FOR 30 WK FOR TOTAL DOSES OF 0, 0.6, 1.2 MMOL (STUDY DURATION: LIFETIME), Tumor Site: Type of Lesion: LUNG: TUMOR, NERVOUS SYSTEM: TUMOR) “active; positive”.
Turning to `CCCNC(=O)NS(=O)(=O)c1ccc(Cl)cc1`, the carcinogen call is, setting by setting: (Species: MOUSE, Strain/Sex: B6C3F1/FEMALE, Route: ORAL, Dose: 0, 3317, 6635 PPM IN DIET, Dose: 0, 3317, 6635 PPM IN DIET) “inactive; negative”; (Species: MOUSE, Strain/Sex: B6C3F1/MALE, Route: ORAL, Dose: 0, 3317, 6635 PPM IN DIET, Dose: 0, 3317, 6635 PPM IN DIET) “inactive; negative”; (Species: RAT, Strain/Sex: F344/FEMALE, Route: ORAL, Dose: 0, 3000, 6000 PPM IN DIET, Dose: 0, 3000, 6000 PPM IN DIET) “inactive; negative”; (Species: RAT, Strain/Sex: F344/MALE, Route: ORAL, Dose: 0, 3000, 6000 PPM IN DIET, Dose: 0, 3000, 6000 PPM IN DIET) “inactive; negative”.
Take `Nc1cc2c3ccccc3ccc2c2ccccc12`: the carcinogen call runs as follows: (Species: MOUSE, Strain/Sex: SWISS/FEMALE, Route: INTRAPERITONEAL, Dose: 0, 100 NMOL (TOTAL DOSE) 1/7, 2/7 AND 4/7 ADMINISTERED ON DAYS 1, 8 AND 15 OF LIFE RESPECTIVELY (STUDY DURATION: 32 WK)) “inactive; negative”; (Species: MOUSE, Strain/Sex: SWISS/MALE, Route: INTRAPERITONEAL, Dose: 0, 100 NMOL (TOTAL DOSE) 1/7, 2/7 AND 4/7 ADMINISTERED ON DAYS 1, 8 AND 15 OF LIFE RESPECTIVELY (STUDY DURATION: 32 WK)) “inactive; negative”.
Turning to `Nc1ccc(N(CCO)CCO)cc1`, the carcinogen call reads like this: (Species: RAT, Strain/Sex: F344/FEMALE, Route: ORAL, Dose: 0, 300, 1000, 3000 PPM IN DIET FOR 104 WK (STUDY DURATION: 104 WK), Dose: 0, 300, 1000, 3000 PPM IN DIET FOR 104 WK (STUDY DURATION: 104 WK)) “inactive; negative”; (Species: RAT, Strain/Sex: F344/MALE, Route: ORAL, Dose: 0, 300, 1000, 3000 PPM IN DIET FOR 104 WK (STUDY DURATION: 104 WK), Dose: 0, 300, 1000, 3000 PPM IN DIET FOR 104 WK (STUDY DURATION: 104 WK)) “inactive; negative”.
With `Nc1ccc(S(=O)(=O)c2ccc(N)cc2)cc1`, the carcinogen call was “inactive; negative” (Species: MOUSE, Strain/Sex: B6C3F1/FEMALE, Route: ORAL, Dose: 0, 500, 1000 PPM IN DIET FOR 78 WK (STUDY DURATION: 105-108 WK), Dose: 0, 500, 1000 PPM IN DIET FOR 78 WK (STUDY DURATION: 105-108 WK)); “inactive; negative” (Species: MOUSE, Strain/Sex: B6C3F1/MALE, Route: ORAL, Dose: 0, 500, 1000 PPM IN DIET FOR 78 WK (STUDY DURATION: 105-106 WK), Dose: 0, 500, 1000 PPM IN DIET FOR 78 WK (STUDY DURATION: 105-106 WK)); “active; positive” (Species: RAT, Strain/Sex: BDIV/MALE,FEMALE, Route: GAVAGE, Dose: 100 MG/KG TO MOTHERS DURING PREGNANCY AND DURING WEANING, 52 G/KG (TOTAL DOSE) TO OFFSPRING AFTER WEANING, Tumor Site: Type of Lesion: THYROID GLAND: MALIGNANT C CELL TUMOR); “inactive; negative” (Species: RAT, Strain/Sex: F344/FEMALE, Route: ORAL, Dose: 0, 600, 1200 PPM IN DIET FOR 78 WK (STUDY DURATION: 105-106 WK), Dose: 0, 600, 1200 PPM IN DIET FOR 78 WK (STUDY DURATION: 105-106 WK)); “inactive; negative” (Species: RAT, Strain/Sex: F344/FEMALE, Route: ORAL, Dose: 0, 600, 1200 PPM IN DIET FOR 78 WK (STUDY DURATION: 105 WK), Dose: 0, 600, 1200 PPM IN DIET FOR 78 WK (STUDY DURATION: 105 WK)); “active; positive” (Species: RAT, Strain/Sex: F344/MALE, Route: ORAL, Dose: 0, 600, 1200 PPM IN DIET FOR 78 WK (STUDY DURATION: 104-106 WK), Dose: 0, 600, 1200 PPM IN DIET FOR 78 WK (STUDY DURATION: 104-106 WK), Tumor Site: Type of Lesion: SPLEEN: FIBROMA OR FIBROSARCOMA OR SARCOMA (NOS), PERITONEAL CAVITY: FIBROSARCOMA, SARCOMA (NOS)). The carcinogen call is “active; positive” (Species: RAT, Strain/Sex: F344/MALE, Route: ORAL, Dose: 0, 600, 1200 PPM IN DIET FOR 78 WK (STUDY DURATION: 105 WK), Dose: 0, 600, 1200 PPM IN DIET FOR 78 WK (STUDY DURATION: 105 WK), Tumor Site: Type of Lesion: SPLEEN OR PERITONEUM: SARCOMA) and “active; positive” (Species: RAT, Strain/Sex: WISTAR/MALE, Route: ORAL, Dose: 0.025% INCREASED TO 0.3% BY THIRD MO, Tumor Site: Type of Lesion: MULTIPLE SITES).
As to `CS(=O)(=O)OCCCNCCCOS(C)(=O)=O`, the carcinogen call runs as follows: (Species: MOUSE, Strain/Sex: B6C3F1/FEMALE, Route: INTRAPERITONEAL, Dose: 0, 20, 40 MG/KG 3/WK FOR 52 WK (STUDY DURATION: 52 WK), Dose: 0, 20, 40 MG/KG 3/WK FOR 52 WK (STUDY DURATION: 52 WK), Tumor Site: Type of Lesion: SUBCUTANEOUS TISSUE: SQUAMOUS CELL CARCINOMA, HEMATOPOIETIC SYSTEM: MALIGNANT LYMPHOMA) “equivocal”; (Species: MOUSE, Strain/Sex: B6C3F1/MALE, Route: INTRAPERITONEAL, Dose: 0, 20, 40 MG/KG 3/WK FOR 52 WK (STUDY DURATION: 52 WK), Dose: 0, 20, 40 MG/KG 3/WK FOR 52 WK (STUDY DURATION: 52 WK), Tumor Site: Type of Lesion: SUBCUTANEOUS TISSUE: SQUAMOUS CELL CARCINOMA, HEMATOPOIETIC SYSTEM: MALIGNANT LYMPHOMA) “equivocal”; (Species: RAT, Strain/Sex: SPRAGUE-DAWLEY/FEMALE, Route: INTRAPERITONEAL, Dose: 0, 12 MG/KG 3/WK FOR 52 WK, 24 MG/KG 3/WK FOR 34 WK, 48 MG/KG 3/WK FOR 27 WK (STUDY DURATION: 27-52 WK), Dose: 0, 12 MG/KG 3/WK FOR 52 WK, 24 MG/KG 3/WK FOR 34 WK, 48 MG/KG 3/WK FOR 27 WK (STUDY DURATION: 27-52 WK), Tumor Site: Type of Lesion: PERITONEUM: SARCOMA, FIBROMA OR FIBROSARCOMA) “equivocal”; (Species: RAT, Strain/Sex: SPRAGUE-DAWLEY/MALE, Route: INTRAPERITONEAL, Dose: 0, 12 MG/KG 3/WK FOR 52 WK, 24 MG/KG 3/WK FOR 34 WK, 48 MG/KG 3/WK FOR 23 WK (STUDY DURATION: 23-52 WK), Dose: 0, 12 MG/KG 3/WK FOR 52 WK, 24 MG/KG 3/WK FOR 34 WK, 48 MG/KG 3/WK FOR 23 WK (STUDY DURATION: 23-52 WK), Tumor Site: Type of Lesion: PERITONEUM: SARCOMA, FIBROMA OR FIBROSARCOMA) “equivocal”.

These data come from PubChem BioAssay AID1259411 (Chemical Carcinogenesis Research Information System (CCRIS), 2018).
